Data as given in patent publication US20030158245A1, “Fused heterocyclic derivatives, their production and use” (priority 2000, published 2003).

Columns and labels:
[1] = test system: Chondromodulin-I (ChM-I) mRNA; assay: Assay of Chondromodulin-I (ChM-I) mRNA by RT-PCR in ATDC5 cells; type: cell-based, mouse; settings: 10^−6 M test compound; ATDC5 cells cultured 7 days; density of ChM-I band determined by bioimaging; no test compound added = 0
Method: Assay of Chondromodulin-I (ChM-I) mRNA:
ATDC5, a substrain derived from mouse teratocarcinoma cell line AT805, was used. ATDC5 cells were cultured at 37° C. for 7 days in the presence of the test compound using a 1:1 mixed medium of Dulbecco's modified Eagle's medium/Ham's F-12 medium containing 5% heat-inactivated fetal bovine serum and 20 μg/ml gentamycin under a condition of 5% carbon dioxide and 95% air. After the cultivation was completed, cells were collected, from which RNA was recovered by using an RNeasy mini kit (manufactured by Quiagen Company), followed by DNAase treatment using MessageClean Kit (manufactured by Genhunter Company) to obtain the total RNA. The amount of ChM-I mRNA in the total RNA was determined by the RT-PCR method. First, cDNA was synthesized from the RNA preparation by reverse transcription reaction using TaKaRa PCR Kit (AMV) ver. 2.1 and random 9-mers (manufactured by Takara Shuzo Co., Ltd.) according to the instruction for the kit. Next, ChM-I gene was amplified specifically by using HotStarTaq DNA polymerase (manufactured by Quiagen company). The following primers were used for the amplification of ChM-I gene: […]
The amplification reaction was carried out in a GeneAmp PCR System 2400 (manufactured by Perkin Elmer Inc.) after warming at 95° C. for 15 minutes, which was followed by 32 repeating reaction cycles of 95° C. for 20 seconds, 58° C. for 10 seconds and 72° C. for 30 seconds. The thus-obtained PCR product was separated by electrophoresis on 2% agarose gel containing ethidium bromide, and the fluorescence intensity of the DNA fragment, which appeared by ultraviolet irradiation at the location corresponding the size (212 bp) expected from the base sequence of mouse ChM-I, was determined. The activity of the test compound to enhance ChM-I expression is expressed as the density of ChM-I band as determined by bioimaging (Table 49). […]

[2] = test system: interstitial cells prepared from the bone marrow of the femur of normal rats; assay: Action to promote osteogenesis: alkaline phosphatase activity in bone marrow interstitial cells; type: cell-based, Sprague-Dawley rats; parameters: dose or concentration left out as unconfirmed; settings: rat bone marrow interstitial cells, compound added from day 2 for 5 days; mean ± S.E. (n = 4); all **p<0.01 vs. control
Method: Action to Promote Osteogenesis:
The action was determined in interstitial cells prepared from the bone marrow of the femur of normal rats by using alkaline phosphatase activity as the measure for osteogenesis. In other words, interstitial cells were prepared from the bone marrow of the femur of 7-week old male Sprague-Dawley rats according to the method of Maniatopoulos et al. [Cell Tissue Research, vol. 254, p. 317 (1988)], and cultivated in α-MEM (minimum essential medium) containing dexamethasone (10^−7 M) and β-glycerophosphoric acid (10^−2 M) to facilitate formation of the calcified osteoid tissue. After one week, the primary culture cells that reached the confluence were recovered by treating with a solution containing 0.25% trypsin and 0.2% EDTA and were subcultured in culture plates at a cell density of […] (day 0 of the cultivation). […] After the cells were washed with a phosphate buffer solution, 0.2% Nonidet P-40 was added to the cells, which were homogenized and centrifuged at 3000 rpm for 10 minutes, and the supernatant was subjected to the determination of alkaline phosphatase activity according to the method of Lowry et al. [Journal of Biological Chemistry, vol. 207, p. 19 (1954)]. Student's t-test was used for the statistical treatment.

Row | Structure (SMILES) | melting point | ChM-I expression-enhancing activity [1] | Alkaline phosphatase activity (A405) [2]
1 | CCOC(=O)N1C2=C(CCc3csc(Oc4ccccc4)c32)CN1C [Example 143, 4,5-dihydro-2-methyl-8-phenoxy-2H-thieno[3,4-g]indazole-1-carboxylic Acid Ethyl Ester] | 89 to 90 °C |  | 
2 | CCNC(=O)c1sc(Oc2ccc3c(c2)OCO3)c2c1CCc1cnn(C)c1-2 [Example 255, N-ethyl-4,5-dihydro-8-(3,4-methylenedioxyphenoxy)-1-methyl-1H-thieno[3,4-g]indazole-6-carboxamide] |  | 106 | 1.82 ± 0.06**
3 | CCCCc1sc(C(=O)OCC)c2c1-c1c(cnn1C)CC2 [Example 78, 8-n-Butyl-4,5-dihydro-1-methyl-1H-thieno[3,4-g]indazole-6-carboxylic Acid Ethyl Ester] | 80 to 81 °C |  | 
4 | CC(C)(C)OC(=O)c1sc(Nc2ccc(Cl)cc2)c2c1CCc1cnoc1-2 [Example 3, 8-(4-Chlorophenylamino)-4,5-dihydrothieno[3,4-g]-1,2-benzisoxazole-6-carboxylic Acid t-butyl Ester] | 197 to 198 °C |  | 
5 | Cn1cc2c(n1)-c1c(N(C(=O)OCc3ccccc3)c3ccccc3)sc(C(N)=O)c1CC2 [Example 22, 8-[(N-Benzyloxycarbonyl-N-phenyl)amino]-4,5-dihydro-2-methyl-2H-thieno[3,4-g]indazole-6-carboxamide] | 220 to 221 °C |  | 
6 | CNC(=O)c1sc(Nc2ccccc2)c2c1CCc1cnoc1-2 [Example 33, N-Methyl-4,5-dihydro-8-(phenylamino)thieno[3,4-g]-1,2-benzisoxazole-6-carboxamide] | 193 to 194 °C |  | 
7 | CN(C(=O)c1ccccc1)c1sc(C(N)=O)c2c1-c1oncc1CC2 [Example 18, 8-[(N-Benzoyl-N-methyl)amino]-4,5-dihydrothieno[3,4-g]-1,2-benzisoxazole-6-carboxamide] | 197 to 198 °C |  | 
8 | CCOC(=O)c1sc(C)c2c1CCc1cnn(CC(F)(F)F)c1-2 [Example 127, 4,5-Dihydro-8-methyl-1-(2,2,2-trifluoroethyl)-1H-thieno[3,4-g]indazole-6-carboxylic Acid Ethyl Ester] | 120 to 121 °C |  | 
9 | CCOC(=O)c1sc(C)c2c1CCc1cnn(C)c1-2 [Example 73, 4,5-Dihydro-1,8-dimethyl-1H-thieno[3,4-g]indazole-6-carboxylic Acid Ethyl Ester] | 118 to 119 °C |  | 
10 | CCOC(=O)c1sc(C)c2c1CCc1cnn(Cc3ccccc3)c1-2 [Example 128, 1-Benzyl-4,5-dihydro-8-methyl-1H-thieno[3,4-g]indazole-6-carboxylic Acid Ethyl Ester] | 131 to 132 °C |  | 
11 | CC(C)OP(=O)(/C=C/c1ccc(Oc2sc(C(N)=O)c3c2-c2nn(C)cc2CC3)cc1)OC(C)C [Example 380, 8-{4-((E)-2-diisopropoxyphosphorylvinyl)phenoxy}-4,5-dihydro-2-methyl-2H-thieno[3,4-g]indazole-6-carboxamide] | 216 to 217 °C |  | 
12 | CC(=O)c1sc(Oc2ccc3c(c2)OCO3)c2c1CCc1cnn(C)c1-2 [Example 251, 1-[4,5-Dihydro-8-(3,4-methylenedioxyphenoxy)-1-methyl-1H-thieno[3,4-g]indazol-6-yl]-1-ethanone] |  | 87 | 1.33 ± 0.13**
13 | O=C(O)c1sc(N(C(=O)OCc2ccccc2)c2ccccc2)c2c1CCc1c[nH]nc1-2 [Example 14, 8-[(N-Benzyloxycarbonyl-N-phenyl)amino]-4,5-dihydro-1H-thieno[3,4-g]indazole-6-carboxylic Acid] | 278 to 279 °C |  | 
14 | NC(=O)c1sc(N(C(=O)OCc2ccccc2)c2ccccc2)c2c1CCc1c[nH]nc1-2 [Example 21, 8-[(N-Benzyloxycarbonyl-N-phenyl)amino]-4,5-dihydro-1H-thieno[3,4-g]indazole-6-carboxamide] | 240 to 241 °C |  | 
15 | O=C(O)c1sc(Nc2ccccc2)c2c1CCc1cnoc1-2 [Example 13, 4,5-Dihydro-8-phenylaminothieno[3,4-g]-1,2-benzisoxazole-6-carboxylic Acid] | 211 to 212 °C (dec.) |  | 
16 | Cn1cc2c(n1)-c1c(Oc3ccc(C=O)cc3)sc(C(N)=O)c1CC2 [Example 380, 8-(4-Formylphenoxy)-4,5-dihydro-2-methyl-2H-thieno[3,4-g]indazole-6-carboxamide] | 210 to 211 °C |  | 
17 | CN(C(=O)c1ccccc1)c1sc(C(=O)O)c2c1-c1oncc1CC2 [Example 11, 8-[(N-Benzoyl-N-methyl)amino]-4,5-dihydrothieno[3,4-g]-1,2-benzisoxazole-6-carboxylic Acid] | 232 to 233 °C (dec.) |  | 
18 | COc1sc(C(N)=O)c2c1-c1c(cnn1C)CC2 [Example 279] | 154 to 156 °C |  | 
19 | CCOC(=O)c1sc(OC)c2c1CCc1cnn(C)c1-2 [Example 263] | 82 to 84 °C |  | 
20 | CCCS(=O)(=O)c1sc(C(N)=O)c2c1-c1c(cnn1C)CC2 [Example 70, 4,5-Dihydro-1-methyl-8-n-propylsulfonyl-1H-thieno[3,4-g]indazole-6-carboxamide] |  | 47 | 0.25 ± 0.02**
21 | NC(=O)c1sc(Nc2ccc(Cl)cc2)c2c1CCc1cnoc1-2 [Example 19, 8-(4-Chlorophenylamino)-4,5-dihydrothieno[3,4-g]-1,2-benzisoxazole-6-carboxamide] | 224 to 225 °C |  | 
22 | Cn1ncc2c1-c1c(Nc3ccccc3)sc(C(N)=O)c1CC2 [Example 28, 4,5-Dihydro-1-methyl-8-phenylamino-1H-thieno[3,4-g]indazole-6-carboxamide] | 140 to 141 °C |  | 
23 | CC(C)(C)OC(=O)c1sc(Nc2ccccc2)c2c1CCc1cnoc1-2 [Example 4, 4,5-Dihydro-8-phenylaminothieno[3,4-g]-1,2-benzisoxazole-6-carboxylic Acid t-butyl Ester] | 148 to 149 °C |  | 
24 | Cn1ncc2c1-c1c(csc1S(C)(=O)=O)CC2 [Example 490, 1-Methyl-8-methylsulfonyl-4,5-dihydro-1H-thieno[3,4-g]indazole] | 192 to 193 °C |  | 
25 | NC(=O)c1sc(Nc2ccccc2)c2c1CCc1cn[nH]c1-2 [Example 29, 4,5-Dihydro-8-phenylamino-1H-thieno[3,4-g]indazole-6-carboxamide] | 233 to 234 °C |  | 
26 | COc1sc(C(=O)O)c2c1-c1c(cnn1C)CC2 [Example 271] | 250 to 252 °C |  | 
27 | O=C(O)c1sc(Nc2ccc(Cl)cc2)c2c1CCc1cnoc1-2 [Example 12, 8-(4-Chlorophenylamino)-4,5-dihydrothieno[3,4-g]-1,2-benzisoxazole-6-carboxylic Acid] | 232 to 233 °C (dec.) |  | 
